Assay results from patent US20240132484A1, “BROAD SPECTRUM ANTIVIRAL COMPOUNDS TARGETING THE SKI COMPLEX” (priority 2020, published 2024).

Tested on: Influenza virus
Assay: organism not typed
Assay type: cell-based, influenza A virus
Settings: for Flu titer (pfu/ml): A549 cells; for Flu titer (pfu/ml) / Influenza virus titer, 10 μM / Influenza virus titer, 50 μM: plaque assay; for Avg PFU/ml: average of first and second experiment; for Influenza virus titer, 10 μM / Influenza virus titer, 50 μM: upper part of table (FIG. 5 data)

## O=C(CCCc1ccccc1)Nc1cccc(N2CCC(NCCCn3nnc4ccccc43)CC2)c1 [Compound 84256405, N-[3-(4-{[3-(1H-1,2,3-benzotriazol-1-yl)propyl]amino}-1-piperidinyl)phenyl]-4-phenylbutanamide]
1 μM compound
  Flu titer (pfu/ml): 50000 pfu/ml
10 μM compound
  Flu titer (pfu/ml): 140000 pfu/ml
50 μM compound
  Flu titer (pfu/ml): 210000 pfu/ml

## COc1ccc(CNC2Cc3ccccc3C2)c(OCC(O)CN2CCN(C)CC2)c1 (stereo not shown) [Compound 18-3]
10 μM screen
  first experiment: 12000 PFU/ml
  second experiment: 1000 PFU/ml
  Avg PFU/ml: 6500 PFU/ml
  Influenza virus titer, 10 μM: 12000 PFU/virus/ml
  Influenza virus titer, 50 μM: 1100 PFU/virus/ml
50 μM screen
  first experiment PFU/ml: 1100 PFU/ml
  second experiment PFU/ml: 1700 PFU/ml
  Avg PFU/ml: 1400 PFU/ml

## COc1ccc(CNCCc2ccccc2)c(OCC(O)CN2CCN(C)CC2)c1 (stereo not shown) [Compound 18-6]
10 μM screen
  first experiment: 10000 PFU/ml
  second experiment: 500 PFU/ml
  Avg PFU/ml: 5250 PFU/ml
  Influenza virus titer, 10 μM: 10000 PFU/virus/ml
  Influenza virus titer, 50 μM: 1300 PFU/virus/ml
50 μM screen
  first experiment PFU/ml: 1300 PFU/ml
  second experiment PFU/ml: 300 PFU/ml
  Avg PFU/ml: 800 PFU/ml

## O=C(CN1CC(c2ccccc2)CC1=O)NCc1nnc(SCC2CCCCC2)n1-c1ccc(F)cc1 (stereo not shown) [Compound 68125364, N-{[5-[(cyclohexylmethyl)thio]-4-(4-fluorophenyl)-4H-1,2,4-triazol-3-yl]methyl}-2-(2-oxo-4-phenyl-1-pyrrolidinyl)acetamide]
1 μM compound
  Flu titer (pfu/ml): 72000 pfu/ml
10 μM compound
  Flu titer (pfu/ml): 62000 pfu/ml
50 μM compound
  Flu titer (pfu/ml): 79000 pfu/ml

## COc1ccc(CNCCc2ccccc2F)c(OCC(O)CN2CCN(C)CC2)c1 (stereo not shown) [Compound 96509034, 1-[2-({[2-(2-fluorophenyl)ethyl]amino}methyl)-5-methoxyphenoxy]-3-(4-methyl-1-piperazinyl)-2-propanol]
1 μM compound
  Flu titer (pfu/ml): 10000 pfu/ml
10 μM compound
  Flu titer (pfu/ml): 4000 pfu/ml
50 μM compound
  Flu titer (pfu/ml): 5000 pfu/ml

## COc1ccc(CNC2CCCCC2)c(OCC(O)CN2CCN(C)CC2)c1 (stereo not shown) [Compound 18-10]
10 μM screen
  first experiment: 40000 PFU/ml
  second experiment: 2600 PFU/ml
  Avg PFU/ml: 21300 PFU/ml
  Influenza virus titer, 10 μM: 40000 PFU/virus/ml
  Influenza virus titer, 50 μM: 16000 PFU/virus/ml
50 μM screen
  first experiment PFU/ml: 16000 PFU/ml
  second experiment PFU/ml: 1900 PFU/ml
  Avg PFU/ml: 8950 PFU/ml

## CCN1CCN(CC(O)COc2cccc(CN(C)Cc3ccccn3)c2)CC1 (stereo not shown) [Compound 10306628, 1-(4-ethyl-1-piperazinyl)-3-(3-{[methyl(2-pyridinylmethyl)amino]methyl}phenoxy)-2-propanol]
1 μM compound
  Flu titer (pfu/ml): 70000 pfu/ml
10 μM compound
  Flu titer (pfu/ml): 85000 pfu/ml
50 μM compound
  Flu titer (pfu/ml): 42000 pfu/ml

## OCCN(Cc1nc(Cc2cccc(C(F)(F)F)c2)no1)CC12CC3CC(CC(C3)C1)C2 [Compound 61121342, 2-[(1-adamantylmethyl)({3-[3-(trifluoromethyl)benzyl]-1,2,4-oxadiazol-5-yl}methyl)amino]ethanol]
1 μM compound
  Flu titer (pfu/ml): 9000 pfu/ml
10 μM compound
  Flu titer (pfu/ml): 130000 pfu/ml
50 μM compound
  Flu titer (pfu/ml): 50000 pfu/ml

## COc1ccc(CNC2CCCCCCC2)c(OCC(O)CN2CCN(C)CC2)c1 (stereo not shown) [Compound 18-8]
10 μM screen
  first experiment: 3000 PFU/ml
  second experiment: 700 PFU/ml
  Avg PFU/ml: 1850 PFU/ml
  Influenza virus titer, 10 μM: 3000 PFU/virus/ml
  Influenza virus titer, 50 μM: 38000 PFU/virus/ml
50 μM screen
  first experiment PFU/ml: 3800 PFU/ml
  second experiment PFU/ml: 200 PFU/ml
  Avg PFU/ml: 2000 PFU/ml

## COc1ccc(CNCCc2ccccc2Cl)c(OCC(O)CN2CCN(C)CC2)c1 (stereo not shown) [Compound 18-4]
10 μM screen
  first experiment: 7000 PFU/ml
  second experiment: 800 PFU/ml
  Avg PFU/ml: 3900 PFU/ml
  Influenza virus titer, 10 μM: 7000 PFU/virus/ml
  Influenza virus titer, 50 μM: 1100 PFU/virus/ml
50 μM screen
  first experiment PFU/ml: 1100 PFU/ml
  second experiment PFU/ml: 300 PFU/ml
  Avg PFU/ml: 700 PFU/ml
